In patent US20230131899A1, “INHIBITORS OF MICROBIALLY INDUCED AMYLOID” (Axial Therapeutics, Inc., priority 2020, published 2023):
Where two headings read alike, the source gives them in different places.

What was measured:
E. coli CsgA = biological target: T1, E. coli CsgA (Escherichia coli, UniProt P28307); test: In vitro ThioflavinT assay of CsgA aggregation (CsgA ThT Assay); format: biochemical; conditions: for remaining activity at 25 µM: compound 25 μM; for remaining activity at 100 µM: compound 100 μM
T1 construct: made in house; host or cells: E. coli NEB 3016 slyD::kan, pET11d
Protocol: In vitro ThioflavinT assay to determine effects of compounds on CsgA aggregation. To assess the effects of compounds on aggregation of E. coli CsgA, a cell-free assay was performed using purified CsgA and Thioflavin T. In the assay, histidine-tagged CsgA was over-expressed in E. coli NEB 3016 slyD::kan cells harboring a pET11d vector containing a C-terminal 6× His tag. Following growth in rich media, CsgA production is induced at an OD600 of approximately 1.0 by addition of 0.5 mM IPTG (isopropyl beta-D-1-thiogalactopyranoside) followed by incubation at 37° C. for 1-4 hours with shaking at 200-250 rpm. Bacteria were resuspended in 8 M guanidine hydrochloride in 50 mM potassium phosphate buffer, pH 7.3 and lysed by sonication on ice using three 20 second intervals. The resulting lysate was incubated on a platform rocker for 1 hour at room temperature. After centrifugation at 10,000×g for 20 minutes, the supernatant was further sonicated on ice for three 20 second intervals and then incubated with nickel-nitrilotriacetic acid resin (Sigma) at room temperature for 1 hour in a 50 mL conical tube on a platform rocker. The resin was washed and pelleted 5 times with 45 mL 8 M guanidine in 50 mM potassium phosphate buffer pH 7.3. The resin was further washed and pelleted two times with 8 M guanidine hydrochloride in 50 mM potassium phosphate buffer pH 7.3 containing 12.5 mM imidazole. Purified CsgA protein was eluted two times with 5 mL of 6-8 M guanidine hydrochloride in 50 mM potassium phosphate buffer, pH 7.3 containing 250 mM imidazole. The eluted protein was aliquoted with 150 μL per aliquot, snap frozen in liquid nitrogen, and stored at −80 C. In order to obtain monomeric CsgA, the purified CsgA protein was thawed and passed through two pre-chilled desalting columns (Zeba) to remove imidazole and guanidine. The buffer exchanged protein was loaded onto a 30-kDa centrifugal filter unit (Amicon) and spun for 30 minutes at 7500×g to remove dimers and other oligomers. Protein concentration was assessed by the NanoDrop technique (Thermo Scientific), as is familiar to one skilled in the art. The CsgA aggregation assay was conducted in 96-well black non-binding surface or white untreated microplates with 20-40 μM ThioflavinT, 50 mM potassium phosphate buffer pH 7.3, 1% DMSO, CsgA at 2-20 μM, and compounds at 3.125-200 uM. The vehicle control wells contain all components of the assay except test compounds and represent the level of CsgA aggregation in the absence of any inhibitor or accelerator. Plates were incubated at room temperature in a Tecan Nano F200 plate reader with excitation at 438 nm using a 439 nm filter with a bandwidth of 8 nm, and emission at 495 nm with a 490 nm filter with a bandwidth of 10 nm, or in a SpectraMax M5, SpectraMax M2 or SpectraMax® i3X (Molecular Devices, San Jose, Calif.) spectrophotometer with excitation at 438 nm and emission at 495 nm. During the assay, plates were shaken initially for 5 seconds and subsequently for 3 seconds prior to fluorescent readings. Readings were performed every 15 minutes for up to 1005 minutes. The effect of compounds on CsgA aggregation in the assay was determined with data from 0-17 hours. Fluorescence values for each compound with CsgA were first adjusted by subtracting the average fluorescence of the compound in the absence of CsgA or in the presence of CsgA and compound at time 0 or 15 minutes. The data were analyzed in several ways:
1. The adjusted ThT fluorescence values were normalized by dividing them by the average fluorescence in the vehicle control wells containing CsgA. The median normalized fluorescence from 6-6.5 hours or 8-9 hours with the compound was expressed as a percentage of the median fluorescence observed in vehicle controls over the same time period. Percent inhibition of CsgA aggregation by a compound was determined by subtracting the percent average fluorescence with the compound relative to the vehicle controls from 100%. […]

[1] = tested on: CsgA gene expression (csgBAC promoter-GFP reporter) in E. coli UTI89; test: In vitro live cell fluorescent reporter assay of CsgA transcription (Reporter Assay); format: cell-based; conditions: Escherichia coli
Protocol: In vitro live cell fluorescent reporter assay to determine effects of compounds on CsgA transcription. To assess the impact of compounds on CsgA gene expression, a live cell assay was performed using an engineered strain of E. coli UTI89 with a fluorescent CsgA gene expression reporter driven by the csgBAC promoter. In the reporter strain, a gene encoding Green Fluorescent Protein (GFP) was placed immediately downstream of the full intergenic region between csgDEF and csgBAC, containing the csgBAC promoter and other transcriptional regulatory elements, and inserted in single copy into the E. coli UTI89 chromosome, as described in Cegelski et. al., “Small-molecule inhibitors target Escherichia coli amyloid biogenesis and biofilm formation,” Nat. Chem. Bio., 25 Oct. 2009. With this construct, GFP expression in the reporter strain was under the same regulation as CsgA expression. The reporter strain was struck out on a YESCA agar plate (1 g/L yeast extract, 10 g/L casamino acids, 20 g/L Bacto Agar) and grown at about 27° C. for 2 days, or until single colonies were sufficiently large to pick. A single colony of the reporter strain was used to inoculate 5 mL of YESCA broth (1 g/L yeast extract, 10 g/L casamino acids), which was grown overnight at about 27° C. The inoculum was diluted 1:10 in YESCA broth and the optical density at 600 nm (OD600) was measured on a SpectraMax M2 or M5e (Molecular Devices, San Jose, Calif.) spectrophotometer in cuvettes. The culture was then further diluted to achieve a final OD600 of 0.003, which was confirmed by measurement of the OD600. Compounds were diluted in dimethyl sulfoxide (DMSO) and plated on black clear-bottomed tissue culture-treated 96-well plates with 1.5 μL/well for final test concentrations from 0.14-100 μM. All assay wells, including vehicle controls and positive controls for inhibition, included 1% DMSO final. Vehicle control wells consisted of DMSO and the reporter strain to assess the expression of the reporter strain in the assay in the absence of any compound. […] 148.5 μL culture at OD600 0.003 in YESCA broth was added to all wells for 150 μL final volume. Plates were incubated at 27° C. for 20 hours, then GFP fluorescence signal for each well was read on a Spectramax M2 or M5e plate reader with excitation at 485 nm, emission at 525 nm, and a cutoff at 515 nm. OD600 for each well was also measured on the Spectramax M2 or M5e plate reader. […] Background fluorescence was subtracted from all wells, then fluorescence signal for each well was normalized to the mean of the vehicle control wells. Normalized dose response curves were plotted for each compound, and compound inhibition of CsgA transcription was determined by assessing the curve-fit IC50, bottom, top, span (top-bottom), and Hill slope using GraphPad Prism software version 8.1.1 (GraphPad Software, San Diego, Calif.). An additional metric used to evaluate compounds was the concentration at which the curve reached 50% of the expression level of the vehicle control. This was written as a custom analysis in GraphPad Prism according to the formula X[50], or the X value at which Y=50, ie, the compound concentration at which fluorescence of the reporter strain was calculated to reach 50% of the vehicle control fluorescence. Separately from the fluorescence data, OD600 values were normalized to the mean of the vehicle control wells, and dose response curves were plotted for each compound. OD600 reduction of greater than 10% indicated compounds had some toxicity or negative impact on bacterial growth. […]

[2] = read-out: CsgA ThT Assay (10 μM CsgA) % Control AUC at 1005 minutes, 25 μM (activity range), CsgA 10 μM, black plates, 1005 minutes, class symbol
[3] = read-out: CsgA ThT Assay (10 μM CsgA) % Control AUC at 1005 minutes, 25 μM, mean AUC as % of DMSO control, CsgA 10 μM, black plates, 1005 minutes
[4] = read-out: CsgA ThT Assay (10 μM CsgA) % Control AUC at 1005 minutes, 100 μM (activity range), CsgA 10 μM, black plates, 1005 minutes, class symbol
[5] = read-out: CsgA ThT Assay (10 μM CsgA) % Control AUC at 1005 minutes, 100 μM, mean AUC as % of DMSO control, CsgA 10 μM, black plates, 1005 minutes
[6] = read-out: Reporter Assay Abs IC50 (activity range), median Abs IC50 in the CsgA reporter assay, class symbol
[7] = read-out: Reporter Assay Abs IC50 (μM), median Abs IC50 in the CsgA reporter assay, N/A = maximum expression reduction is <50% of control
[8] = read-out: CsgA ThT Assay (2 μM CsgA) % Control Bmax 25 μM, activity range, class symbol, CsgA 2 μM, white plates
[9] = read-out: CsgA ThT Assay (2 μM CsgA) % Control Bmax 25 μM, mean Bmax as percentage of DMSO control, CsgA 2 μM, white plates
[10] = read-out: CsgA ThT Assay (2 μM CsgA) % Control Bmax 100 μM, activity range, class symbol, CsgA 2 μM, white plates
[11] = read-out: CsgA ThT Assay (2 μM CsgA) % Control Bmax 100 μM, mean Bmax as percentage of DMSO control, CsgA 2 μM, white plates
[12] = read-out: Reporter Assay Abs IC50, activity range, class symbol

T1 sequence (P28307 23-151): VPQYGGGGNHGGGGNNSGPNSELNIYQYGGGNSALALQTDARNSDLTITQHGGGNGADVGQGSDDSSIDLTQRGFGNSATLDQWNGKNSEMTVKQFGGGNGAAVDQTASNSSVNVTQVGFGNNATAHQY

Structure (SMILES) | remaining activity at 25 µM (E. coli CsgA; [2]) | remaining activity at 25 µM (E. coli CsgA; [3]) | remaining activity at 100 µM (E. coli CsgA; [4]) | remaining activity at 100 µM (E. coli CsgA; [5]) | IC50 [1, 6] | IC50 [1, 7] | remaining activity at 25 µM (E. coli CsgA; [8]) | remaining activity at 25 µM (E. coli CsgA; [9]) | remaining activity at 100 µM (E. coli CsgA; [10]) | remaining activity at 100 µM (E. coli CsgA; [11]) | IC50 [1, 12]
CN1CC(C(=O)O)n2c1c(-c1cccc(C(F)(F)F)c1)c(Cc1cccc3ccccc13)cc2=O (stereo not drawn) [Compound 104, 1-methyl-7-(naphthalen-1-ylmethyl)-5-oxo-8-(3-(trifluoromethyl)phenyl)-1,2,3,5-tetrahydroimidazo[1,2-a]pyridine-3-carboxylic acid] | > 60% | 82% | 31 to 60% | 52% | 4.6 to 10 µM | 6 µM | – | – | – | – | –
Nc1c(Cc2cccc3ccccc23)c(-c2cccc(C(F)(F)F)c2)c2n(c1=O)C(C(=O)O)CN(CCCCCO)S2(=O)=O (stereo not drawn) [Compound 100, 7-amino-2-(5-hydroxypentyl)-8-(naphthalen-1-ylmethyl)-6-oxo-9-(3-(trifluoromethyl)phenyl)-3,4-dihydro-2H,6H-pyrido[1,2-e][1,2,5]thiadiazine-4-carboxylic acid 1,1-dioxide] | 31 to 60% | 41% | 31 to 60% | 31% | > 10 µM | 14.5 µM | – | – | – | – | –
CCCN1CC(C(=O)O)n2c(c(-c3cccc(C(F)(F)F)c3)c(Cc3cccc4ccccc34)c(N)c2=O)S1(=O)=O (stereo not drawn) [Compound 089, 7-amino-8-(naphthalen-1-ylmethyl)-6-oxo-2-propyl-9-(3-(trifluoromethyl)phenyl)-3,4-dihydro-2H,6H-pyrido[1,2-e][1,2,5]thiadiazine-4-carboxylic acid 1,1-dioxide] | 31 to 60% | 31% | 11 to 31% | 23% | 4.6 to 10 µM | 8 µM | – | – | – | – | –
O=C(O)c1c(Cc2ccccc2)sc2c(-c3cccc(C(F)(F)F)c3)c(Cc3cccc4ccccc34)cc(=O)n12 [Compound 060, 2-benzyl-7-(naphthalen-1-ylmethyl)-5-oxo-8-(3-(trifluoromethyl)phenyl)-5H-thiazolo[3,2-a]pyridine-3-carboxylic acid] | > 60% | 91% | > 60% | 98% | 1.3 to 4.5 µM | 1.4 µM | – | – | – | – | –
O=C(O)C1CN(C2CCCC2)S(=O)(=O)c2c(-c3cccc(C(F)(F)F)c3)c(Cc3cccc4ccccc34)c(NC3CCCC3)c(=O)n21 (stereo not drawn) [Compound 150, 2-cyclopentyl-7-(cyclopentylamino)-8-(naphthalen-1-ylmethyl)-6-oxo-9-(3-(trifluoromethyl)phenyl)-3,4-dihydro-2H,6H-pyrido[1,2-e][1,2,5]thiadiazine-4-carboxylic acid 1,1-dioxide] | – | – | – | – | – | 4.2 µM | > 60% | 78% | > 60% | 199% | 1.3 to 4.5 µM
CCCc1c(Cc2cccc3ccccc23)c(-c2cccc(C(F)(F)F)c2)c2n(c1=O)C(C(=O)O)CN(C)S2(=O)=O (stereo not drawn) [Compound 090, 2-methyl-8-(naphthalen-1-ylmethyl)-6-oxo-7-propyl-9-(3-(trifluoromethyl)phenyl)-3,4-dihydro-2H,6H-pyrido[1,2-e][1,2,5]thiadiazine-4-carboxylic acid 1,1-dioxide] | 31 to 60% | 54% | 11 to 31% | 30% | 4.6 to 10 µM | 5.9 µM | – | – | – | – | –
O=C(O)C1CN(Cc2ccccc2)c2c(-c3cccc(C(F)(F)F)c3)c(Cc3cncc4ccccc34)c(Cl)c(=O)n21 (stereo not drawn) [Compound 210, 1-benzyl-6-chloro-7-(isoquinolin-4-ylmethyl)-5-oxo-8-(3-(trifluoromethyl)phenyl)-1,2,3,5-tetrahydroimidazo[1,2-a]pyridine-3-carboxylic acid] | – | – | – | – | – | 2.5 µM | > 60% | 79% | > 60% | 61% | 1.3 to 4.5 µM
